Measured values reported in ChEMBL document CHEMBL2331159, “Radiolytic transformation of rotenone with potential anti-adipogenic activity” (Bioorg Med Chem Lett, 2013).

How the values were obtained:
[1] = target: T1, Pancreatic triacylglycerol lipase (Sus scrofa, UniProt P00591); assay: (§1) Inhibition of pig pancreatic lipase assessed as hydrolysis of p-nitrophenylbutyrate to p-nitrophenol
T1 sequence (P00591 whole entry): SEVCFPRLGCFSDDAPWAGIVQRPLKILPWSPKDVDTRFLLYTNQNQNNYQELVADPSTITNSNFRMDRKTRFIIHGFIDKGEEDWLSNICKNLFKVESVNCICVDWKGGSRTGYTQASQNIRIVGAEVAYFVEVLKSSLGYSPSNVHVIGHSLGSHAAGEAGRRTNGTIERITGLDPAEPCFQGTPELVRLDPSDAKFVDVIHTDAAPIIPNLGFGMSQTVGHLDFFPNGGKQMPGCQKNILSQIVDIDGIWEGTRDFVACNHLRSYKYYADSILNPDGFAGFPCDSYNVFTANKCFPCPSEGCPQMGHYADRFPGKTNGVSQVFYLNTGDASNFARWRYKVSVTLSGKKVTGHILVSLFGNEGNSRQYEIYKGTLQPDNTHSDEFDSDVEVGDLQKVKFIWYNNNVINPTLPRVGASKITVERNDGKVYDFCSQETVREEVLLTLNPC

3T3-L1 [2] = assay: Cytotoxicity against mouse 3T3L1 cells assessed as cell viability at 0.02 to 20 uM by MTT assay; format: cell-based; conditions: 3t3-l1, 20 µM
[3] = target: T2, Pancreatic triacylglycerol lipase (Sus scrofa) (UniProt P00591); assay: as §1
T2 sequence (whole entry): T1 sequence (P00591 whole entry)

3T3-L1 [4] = assay: Cytotoxicity against mouse 3T3L1 cells assessed as cell viability upto 2 uM by MTT assay; format: cell-based
3T3-L1 [5] = assay: Antiadipogenic activity against mouse 3T3L1 cells assessed as inhibition of lipid deposition at 2 uM by Oil Red O staining; format: functional

Compound | IC50 [1] | Activity (3T3-L1 [2]) | inhibition [3] | Activity (3T3-L1 [4]) | inhibition at 2 µM (3T3-L1 [5])
C=C(C)[C@H]1Cc2c(ccc3c2O[C@@H]2COc4cc(OC)c(OC)cc4[C@@H]2C3=O)O1 (stereo in doubt) [ROTENONE] | 79.1 µM |  |  |  | 
C=C(C)[C@H]1Cc2c(ccc3c2O[C@@H]2COc4cc(OC)c(OC)cc4[C@@H]2C3=O)O1 (stereo in doubt; 1) [ROTENONE] | > 500 µM | Toxic |  |  | 
C=C(C)[C@H]1Cc2c(ccc3c2O[C@@H]2COc4cc(OC)c(OC)cc4[C@@H]2[C@@]32CO2)O1 [ROTENOISIN A] | 6.3 µM |  | Dose-dependent effect | Non-toxic | 70%
C=C(C)[C@H]1Cc2c(ccc3c2O[C@@H]2COc4cc(OC)c(OC)cc4[C@@H]2[C@]32C[C@H]3O[C@@]3(O)[C@H](O)O2)O1 [ROTENOISIN B] | 28.4 µM |  |  | Non-toxic | 70%
